Some test systems named below: HT-29; UACC-257; HOP-92; Malme-3M; U-251; SK-MEL-5; IGROV-1; K562; RPMI-8226; SK-OV-3; EKVX; SF-539; SF-295; NCI-H226; SNB-19; HCT-15; OVCAR-4; NCI-H460; SK-MEL-2.
Holding throughout (assay): DTP human tumour cell line panel, 48 h

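48-hour exposure; five concentrations; linearly interpolated endpoints. Abbreviation: GI50, concentration required for 50% inhibition of growth.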 Activity calls are given as the source filed them. Cut-off read from the data, not from the text of the source: active = GI50 up to about 1.1 µM and inactive = higher.

One may read the GI50 as the concentration at which growth is held to half of that of the control. Consider `Cc1occ2c1C(=O)CC1C2[C@@H](O)CC2C(C)(C)CCC[C@]12C` (some centres not stated), for which the GI50 is > 100 µM (inactive) in the test on HT-29; > 100 µM (inactive) in the test on UACC-257; > 100 µM (inactive) with HOP-92; > 100 µM (inactive) in the test with Malme-3M; 94.8 µM (inactive) with U-251; > 100 µM (inactive) with SK-MEL-5. The GI50 was > 100 µM (inactive) in the test on IGROV-1; > 100 µM (inactive) in the test on K562; 55.6 µM (inactive) with RPMI-8226; > 100 µM (inactive) in the test with SK-OV-3; > 100 µM (inactive) with EKVX; > 100 µM (inactive) with SF-539. Also, the GI50 with SF-295 is > 100 µM (inactive); in the test on NCI-H226, > 100 µM (inactive); in the test on SNB-19, > 100 µM (inactive); in the test with HCT-15, more than 100 µM; in the test on OVCAR-4, 98.9 µM (inactive).
As to `COc1ccc(C(c2ccccc2C(=O)O)c2ccc(OC)c3ccccc23)c2ccccc12`, the GI50 in the test with HT-29 was 11.9 µM (inactive); in the test on UACC-257, 4.85 µM (inactive); with HOP-92 it was 33.5 µM (inactive); in the test on Malme-3M, 13.3 µM (inactive); in the test with U-251, 7.83 µM (inactive); with SK-MEL-5, 15.9 µM (inactive). Moreover, the GI50 in the test with IGROV-1 is 11.3 µM (inactive); in the test on K562 it was 5.2 µM (inactive); in the test on RPMI-8226 it was 3.61 µM (inactive); in the test on SK-OV-3 it was 23.6 µM (inactive); with EKVX it was 20.2 µM (inactive); with SF-539, 12 µM (inactive). In addition, the GI50 was 11.1 µM (inactive) with SF-295; 20 µM (inactive) in the test with NCI-H226; 11.2 µM (inactive) with SNB-19; 8.63 µM with HCT-15; 10.7 µM (inactive) with OVCAR-4.
As for `C=C=C(Sc1ccccc1)C(C)(C)O`, the GI50 in the test on HT-29, with UACC-257, in the test on HOP-92, with Malme-3M, with U-251 and with NCI-H460 was > 100 µM (inactive) each time. The GI50 in the test with SK-MEL-2, with IGROV-1, with K562, in the test on RPMI-8226, with SK-OV-3 and in the test on SF-539 was > 100 µM (inactive) in each case. The GI50 with SF-295 was > 100 µM (inactive); in the test on NCI-H226, > 100 µM (inactive); in the test with SNB-19, > 100 µM (inactive); in the test with HCT-15 it was more than 100 µM; with OVCAR-4, > 100 µM (inactive).
In the case of `O=C(Cc1ccccc1)N/N=C(/c1nc2ccc([N+](=O)[O-])cc2nc1O)C(O)c1ccc(C(O)/C(=N/NC(=O)Cc2ccccc2)c2nc3ccc([N+](=O)[O-])cc3nc2O)cc1` (configuration not stated), the GI50 in the test with HT-29 was 53.8 µM (inactive); in the test with UACC-257, 62.4 µM (inactive); with HOP-92, > 100 µM (inactive); in the test on Malme-3M it was > 100 µM (inactive); in the test on SK-MEL-2, 40 µM (inactive); in the test with IGROV-1, > 100 µM (inactive). The GI50 in the test with K562 was 12.4 µM (inactive); in the test with RPMI-8226, 21 µM (inactive); with SK-OV-3 it was > 100 µM (inactive); in the test with EKVX it was > 100 µM (inactive); in the test with SF-539, 56.8 µM (inactive); in the test on SF-295 it was 44.9 µM (inactive). Moreover, the GI50 is > 100 µM (inactive) with NCI-H226, > 100 µM (inactive) in the test on SNB-19, 19.4 µM with HCT-15 and > 100 µM (inactive) with OVCAR-4.
